# Source: US20160264593A1 (priority 2013, published 2016)
# Assay: in vivo
# Conditions: rat, in vivo; for Tmax: Tmax of 100; for MRT: MRT of 100
# Experimental: 100 was administrated via iv route at 0.5, 1.0 and 1.5 mg/kg into SD rats. The blood, liver and brain tissue samples were collected at predetermined times from rats.
# Twelve (12) female SD rats per group were dosed by iv with 100. The rats were fasted overnight prior to dosing, with free access to water. Foods were withheld for 2 hours post-dose. Blood, liver and brain tissue samples in two animals each group were collected at each time point, within 10% of the scheduled time for each time point. Two extra animals were used for analytic method development. Blood (>0.3 mL) were collected via aorta abdominalis in anaesthetic animalsinto tubes containing heparin at 15 min, 1, 2, 6, 10 and 24 hours after iv administration. Liver and brain tissues were collected immediately after animal death. The liver and brain tissues were excised and rinsed with cold saline to avoid blood residual. Upon collection, each sample was placed on ice and the blood samples were subsequently centrifuged (4° C., 11000 rpm, 5 min) to separate plasma. The obtained plasma, liver and brain tissue samples were stored at −70° C. until LC-MS/MS analysis.
# AUC0-∞ (AUC/NF) is the area under the plasma concentration-time curve with last concentration extrapolated based on the elimination rate constant.
# [1] = female, Sprague-Dawley (SD), iv, 0.5 mg/kg, 100 brain concentration
# [2] = female, Sprague-Dawley (SD), iv, 0.5 mg/kg, 100 liver concentration
# [3] = female, Sprague-Dawley (SD), iv, 1 mg/kg, 100 liver concentration
# [4] = female, Sprague-Dawley (SD), iv, 1.5 mg/kg, 100 brain concentration
# [5] = female, Sprague-Dawley (SD), iv, 1.5 mg/kg, 100 liver concentration
# [6] = female, Sprague-Dawley, iv, 0.5 mg/kg, 100 plasma concentration
# [7] = female, Sprague-Dawley, iv, 1 mg/kg, 100 plasma concentration
# [8] = female, Sprague-Dawley, iv, 1.5 mg/kg, 100 plasma concentration
compound,measurement,setting,value
"CN1CCN(C(=O)C2C3CCC(O3)C2C(=O)O)CC1 (stereo not drawn) [Compound 100, 3-(4-methylpiperazine-1-carbonyl)-7-oxa-bicyclo[2,2,1]-heptane-2-carboxylic acid]",AUC(0-inf),"female, SD, iv, 0.5 mg/kg",706 ng·h/mL
same,AUC(0-t),"female, SD, iv, 0.5 mg/kg",696 ng·h/mL
same,Tmax of 100,"female, SD, iv, 0.5 mg/kg",0.25 h
same,Cmax,"female, SD, iv, 0.5 mg/kg, Cmax of 100",1110 ng/mL
same,Tmax,"female, SD, iv, 0.5 mg/kg",0.25 h
same,AUC(0-inf),"female, SD, iv, 1 mg/kg",2830 ng·h/mL
same,AUC(0-t),"female, SD, iv, 1 mg/kg",1920 ng·h/mL
same,Tmax of 100,"female, SD, iv, 1 mg/kg",0.25 h
same,Cmax,"female, SD, iv, 1 mg/kg, Cmax of 100",2380 ng/mL
same,MRT,"female, SD, iv, 1 mg/kg",2.68 h
same,Tmax,"female, SD, iv, 1 mg/kg",0.25 h
same,AUC(0-inf),"female, SD, iv, 1.5 mg/kg",8640 ng·h/mL
same,AUC(0-t),"female, SD, iv, 1.5 mg/kg",7400 ng·h/mL
same,Cmax,"female, SD, iv, 1.5 mg/kg, Cmax of 100",3660 ng/mL
same,MRT,"female, SD, iv, 1.5 mg/kg",2.57 h
same,half-life,"female, SD, iv, 1.5 mg/kg, T½ of 100",1.93 h
same,concentration at 0.25 h,[1],15.3 ng/g
same,concentration at 0.25 hr,[1],17.4 ng/g
same,concentration at 1 hr,[1],6.31 ng/g
same,concentration at 0.25 h,[2],520 ng/g
same,concentration at 2 h,[2],109 ng/g
same,concentration at 6 h,[2],4.8 ng/g
same,concentration at 2 h,"female, Sprague-Dawley (SD), iv, 0.5 mg/kg, 100 plasma concentration",22.6 ng/mL
same,concentration at 0.25 h,[3],1300 ng/g
same,concentration at 1 h,[3],865 ng/g
same,concentration at 0.25 h,[4],46.9 ng/g
same,concentration at 1 h,[4],28.2 ng/g
same,concentration at 2 h,[4],27.2 ng/g
same,concentration at 6 h,[4],4.23 ng/g
same,concentration at 0.25 h,[5],1980 ng/g
same,concentration at 1 h,[5],2140 ng/g
same,concentration at 2 h,[5],2400 ng/g
same,concentration at 6 h,[5],407 ng/g
same,concentration at 10 h,[5],5.25 ng/g
same,100 liver concentration,"female, Sprague-Dawley (SD), iv, 1.5 mg/kg, 6 h",536 ng/g
same,concentration at 0.25 h,[6],1000 ng/mL
same,concentration at 1 h,[6],192 ng/mL
same,concentration at 2 h,[6],25.8 ng/mL
same,100 plasma concentration,"female, Sprague-Dawley, iv, 0.5 mg/kg, 2 h",19.4 ng/mL
same,concentration at 0.25 h,[7],2120 ng/mL
same,concentration at 1 h,[7],354 ng/mL
same,concentration at 6 h,[7],3.27 ng/mL
same,AUC(0-t),"female, Sprague-Dawley, iv, 1.5 mg/kg",696 to 7400 ng·h/mL
same,concentration at 0.25 h,[8],3780 ng/mL
same,concentration at 1 h,[8],1760 ng/mL
same,concentration at 2 h,[8],1310 ng/mL
same,concentration at 6 h,[8],263 ng/mL
same,half-life,"female, Sprague-Dawley, iv, 1.5 mg/kg, T1/2 of 100 in brain",1.67 to 1.93 h
same,half-life,"female, Sprague-Dawley, iv, 1.5 mg/kg, T1/2 of 100 in liver",0.78 to 2.01 h
same,half-life,"female, Sprague-Dawley, iv, 1.5 mg/kg, T1/2 of 100 in plasma",0.31 to 2.2 h
same,Cmax,"female, Sprague-Dawley, iv, 1.5 mg/kg, mean Cmax of 100 in brain",17.4 to 43.5 ng/g
same,Cmax,"female, Sprague-Dawley, iv, 1.5 mg/kg, mean Cmax of 100 in liver",586 to 2550 ng/g
same,AUC of 100 versus dose level (statement),,increased proportionally
same,100 detectable in brain tissue samples,iv,detectable
same,100 detectable in liver tissue samples,iv,detectable
same,100 in brain tissue,iv,below limit of quantification
same,100 in liver tissue,iv,below limit of quantification
same,AUCINF of 100,"iv, 0.5 mg/kg",902.2 ng·h/g
same,AUClast of 100 in brain,"iv, 1.5 mg/kg",10.8˜125.5 ng·h/g
same,AUClast of 100 in liver,"iv, 1.5 mg/kg",758.6˜9081.0 ng·h/g
